Experimental data reported in patent US6444656B1, “Antiviral phosphonate nucleotides” (BioChem Pharma, Inc., priority 1992, dated 2002).

How the values were obtained:
Assay type in all cases: cell-based
HIV-1 = experiment: Anti-HIV activity: inhibition of HIV-1 replication in infected established cell lines; details: laboratory strains of HIV-1, established cell lines, 4 to 6 days post-infection
Experimental: (§1) Laboratory strains of HIV-1, were used to infect established cell lines by using a specific multiplicity of infection (MOI) of the virus for 1 hour at 37° C. prior to washing the cells and re-suspension in medium containing increasing concentrations of drug (or test compound). At 4 to 6 days post-infection, drug-treated and control wells are analyzed for an HIV-1 induced cytopathic effect and/or for the presence of viral reverse transcriptase (RT) or viral p24 antigen in the culture medium (Buckheit and Swanstrom (1991) AIDS Res. Human Retroviruses 7:295-302; Ojwang, et al (1994) J. Acquired Immune Deficiency Syndrome 7:560-570; Ojwang, J. O., et al (1995) Antimicrobial Agents and Chemotherapy. 39:2426-2435 and Rando et al (1995) J. Biol. Chem. 270:1754-1760).

[1] = tested on: 2.2.15 cell line derived from HepG2 cells; experiment: Cytotoxicity (CC50) reported with the anti-HBV assay; details: cytotoxicity of Table 2 (HBV assay, 2.2.15 cells)
Experimental: (§2) The 2.2.15 cell line derived from HepG2 cells transfected with episomal HBV DNA (Sells et al (1987) Proc. Natl. Acad. Sci. USA 84:1005-1009 and (1988) J. Virol. 62:2836-2844) was used. The assay was performed basically as described by Ojwang et al. (1995) Antimicrobial Agents and Chemotherapy 39:2570-2573 ). The 2.2.15 cells are seeded (10^5 cells per well) in 300 ul of minimal essential medium supplemented with 10% fetal bovine serum, using 24-well plates pre-coated with 150 ul of 0.1 mg of collagen (rat tail) type I per ml reconstituted in 0.02 M acetic acid. The collagen treatment helped the cells 10 disperse evenly over the culture plate. Once the cells reach confluency (approximately 1 day), the culture medium is replaced every 2 days with medium containing various concentrations of the indicated test compound. In this experiment, the nucleosides 2′,3′-dideoxy-3′-thiacytidine (3TC) or 2′,3′-dideoxycytidine (ddC) are used as positive controls (Ojwang et al. (1995)). Twelve days postadministration of the test compounds, cells are harvested and DNA is prepared as described by Fennewald et al. ( (1995) Antiviral Res. 26:37-54.). At the same time, the culture medium is saved and analyzed for the presence of extracellular viral nucleic acids.

HBV = experiment: Anti-HBV activity: inhibition of HBV replication in 2.2.15 cells; details: twelve days postadministration
Experimental: as §2
The integrated and episomal HBV DNAs are easily separated by using agarose gel electrophoresis which allows for the differential quantification of the two species of HBV DNA. […] As a molecular probe, a subgenomic fragment of the HBV DNA is cloned into the pCRII TA cloning vector (Invitrogen) plasmid between the two EcoR1 sites. The subgenomic HBV DNA fragment is obtained by using the PCR technique to amplify a portion of the HBV genome (nucleotide positions 2134 to 143). Total DNA isolated from 2.2.15 cells is used as the PCR template with primer sets corresponding to nucleotide positions 2134 to 2151 (forward) and 143 to 126 (reverse). […] In addition, the filters are also exposed to a photoimaging plate and quantitated, using a Fujix Bioimaging Analyzer System BAS 1000 (or similar) instrument.

established cell lines = experiment: Cytotoxicity (CCTD50) reported with the anti-HIV-1 assay; details: cytotoxicity Table 1 (HIV-1 assay)
Experimental: as §1

[2] = Cytotoxicity (CC50) reported with the anti-HBV assay; details: human; cytotoxicity of Table 2 (HBV assay, 2.2.15 cells)
Experimental: as §2

Compound	EC50 (μg/ml), inhibition of HIV-1 replication (HIV-1) [µg/mL]	CC50 [1] [µg/mL]	EC50 (μg/ml), inhibition of HBV replication (HBV) [µg/mL]	CCTD50 (established cell lines) [µg/mL]	EC50 (HIV-1; Human immunodeficiency virus 1, read-out: EC50 (μg/ml), inhibition of HIV-1 replication) [µg/mL]	CC50 [2] [µg/mL]	EC50 (HBV; Hepatitis B virus, read-out: EC50 (μg/ml), inhibition of HBV replication) [µg/mL]
Nc1nc2c(nc(Cl)n2CC2CCC(P(=O)(Oc3ccccc3)Oc3ccccc3)O2)c(=O)[nH]1 (stereo not drawn) [Example 16, [5-(2-Amino-8-chloro-6-oxo-1,6-dihydro-purin-9-ylmethyl)-tetrahydro-furan-2-yl]-phosphonic Acid Diphenyl Ester]	0.46	>300	11	>10	–	–	–
Nc1nc(O)c2ncn(C[C@H]3O[C@@H](P(=O)(O)O)C[C@@H]3F)c2n1 [Compound 23]	–	–	–	>10	> 10	> 300	> 30
Ammonium; 5-(2-Amino-6-oxo-1,6-dihydro-purin-9-ylmethyl)-3,4-dihydroxy-tetrahydro-furan-2-phosphonate [Example 10]	5	>300	0.295	>10	–	–	–
